The values below come from patent US10562857B2 (AFASCI, Inc., priority 2015, dated 2020).

The target of the assay is T1, Cav3.2 channel (Homo sapiens, UniProt O95180).
T1 construct: expressed in transfected cells; host or cells: HEK-293, tetracycline inducible expression system (Invitrogen)
The experiment in a line: Whole-cell patch clamp of T-type Cav3.2 channel expressed in HEK293 cells. In kind it is cell-based. Conditions: for IC50: Table 1, tested at at least 4 concentrations, read-out: IC50; for inhibition at 1 µM / inhibition at 3 µM: HEK293, Table 1 primary screening; for inhibition at 3 µM: 3 μM as indicated in cell, read-out: % inhibition at 3 μM. The procedure:
Cav3.1, Cav3.2 or Cav3.3 channels were expressed in human embryonic kidney (HEK)-293 cells using a tetracycline inducible expression system (Invitrogen). Cells were maintained in 25 cm^2 tissue culture flasks at 37° C., 5% CO2, and 100% relative humidity in D-MEM/F12 (Dulbecco's Modified Eagle Medium/Nutrient Mixture F-12; Gibco) supplemented with fetal bovine serum (FBS, 10% v/v), sodium pyruvate (0.5 mM, Gibco), penicillin-streptomycin (100 U/mL, 100 μg/mL) and Geneticin® Selective antibiotic (G418; 0.5 mg/mL). Cells were detached from the flask base using a non-enzymatic cell dissociation solution (Cellstripper, Corning), removed and re-seeded on to poly-D-lysine coated glass coverslips in 35 mm dishes. Cells in dishes were further supplemented with G418 at a final concentration of 1 mg/mL and after 24 hours, expression of Cav3.2 was induced with 1 μg/mL tetracycline. The medium for the HEK-293 cells was composed of D-MEM/F-12 (Dulbecco's Modified Eagle Medium/Nutrient Mixture F-12; Gibco, #11330-032) and 15 mM HEPES buffer, with L-glutamine and pyridoxine hydrochloride. It was supplemented with FBS (Fetal Bovine Serum), P/S (Penicillin/Streptomycin) (Gibco, #15140-122), and sodium pyruvate 100 mM (Gibco, #11360-070). At least 24 hours before the assay, expression of the alpha-2-delta-1 and beta2a subunits of the calcium channel were induced with 1 ug/mL tetracycline.
Whole-cell voltage clamp recordings were performed on rat or mouse DRG neurons within 2 days after acutely dissociation or cultured HEK293 cells expressing T-type channels (encoded by Cav3.1, Cav3.2 or Cav3.3 channels). All experiments were performed at room temperature (around 21° C.). Whole-cell currents were recorded using a MultiClamp 700B amplifier and analyzed offline with pCLAMP10.4 software (Molecular Devices, LLC, Sunnyvale Calif., USA). To record calcium currents in DRG and HEK293 cells, the external solution was composed (in mM) of 115 choline-Cl, 30 TEA-Cl, 2 CaCl2, 10 glucose and 10 HEPES (pH 7.3-7.4 adjusted with TEA-OH; osmolality verified as 295 mOsm/kg). The internal solution was composed (in mM) of 125 CsCl, 10 HEPES (acid), 10 EGTA (ethylene glycol tetraacetic acid), 1 CaCl2, 1 MgCl2, 4 MgATP and 0.3 MgGTP (pH 7.3-7.4 adjusted with CsOH; osmolality verified as 295 mOsm/kg). Since the sodium ions were absent in the external solution, tetrodoctoxin was not needed. Calcium currents were recorded at a holding potential of −100 mV and then depolarized to −30 mV for 100 ms to activate either Cav3.1, Cav3.2, or Cav3.3 expressed in HEK cells. An interpulse interval of 10 seconds allowed the channel recovery from inactivation, and achieved stable current recordings. To record sodium (Na^+) currents in DRG neurons, the external solution used the modified Krebs solution specified above. The internal solution was composed (in mM) of 120 CsF, 10 HEPES, 11 EGTA, 1 CaCl2, 1 MgCl2, 10 TEA-Cl, 4 MgATP and 0.3 MgGTP (pH 7.3-7.4 adjusted with CsOH). […] To record potassium currents in DRG neurons, the external solution used the modified Kreb's solution specified above. The internal solution was composed (in mM) of 65 KCl, 80 KF, 5 KOH, 10 EGTA, 2 MgATP (pH 7.3-7.4 adjusted with KOH). Recording electrodes were fabricated using a P-87 puller (Sutter Instrument Co., Novato, Calif., USA). The tip of resistance was 3-4 MQ in bath and the series resistance was less than 10 MΩ after whole cell configuration. All reagents were purchased from Sigma unless specified otherwise. Test compounds were usually applied via a rapid solution exchange system with 8 fine polyplastic tubings (100 μm, OD) glued in a holder in parallel and located closely to the recorded cells. […]
For orientation: Patch clamp records ionic current or voltage across a cell membrane.

T1 sequence (O95180 whole entry): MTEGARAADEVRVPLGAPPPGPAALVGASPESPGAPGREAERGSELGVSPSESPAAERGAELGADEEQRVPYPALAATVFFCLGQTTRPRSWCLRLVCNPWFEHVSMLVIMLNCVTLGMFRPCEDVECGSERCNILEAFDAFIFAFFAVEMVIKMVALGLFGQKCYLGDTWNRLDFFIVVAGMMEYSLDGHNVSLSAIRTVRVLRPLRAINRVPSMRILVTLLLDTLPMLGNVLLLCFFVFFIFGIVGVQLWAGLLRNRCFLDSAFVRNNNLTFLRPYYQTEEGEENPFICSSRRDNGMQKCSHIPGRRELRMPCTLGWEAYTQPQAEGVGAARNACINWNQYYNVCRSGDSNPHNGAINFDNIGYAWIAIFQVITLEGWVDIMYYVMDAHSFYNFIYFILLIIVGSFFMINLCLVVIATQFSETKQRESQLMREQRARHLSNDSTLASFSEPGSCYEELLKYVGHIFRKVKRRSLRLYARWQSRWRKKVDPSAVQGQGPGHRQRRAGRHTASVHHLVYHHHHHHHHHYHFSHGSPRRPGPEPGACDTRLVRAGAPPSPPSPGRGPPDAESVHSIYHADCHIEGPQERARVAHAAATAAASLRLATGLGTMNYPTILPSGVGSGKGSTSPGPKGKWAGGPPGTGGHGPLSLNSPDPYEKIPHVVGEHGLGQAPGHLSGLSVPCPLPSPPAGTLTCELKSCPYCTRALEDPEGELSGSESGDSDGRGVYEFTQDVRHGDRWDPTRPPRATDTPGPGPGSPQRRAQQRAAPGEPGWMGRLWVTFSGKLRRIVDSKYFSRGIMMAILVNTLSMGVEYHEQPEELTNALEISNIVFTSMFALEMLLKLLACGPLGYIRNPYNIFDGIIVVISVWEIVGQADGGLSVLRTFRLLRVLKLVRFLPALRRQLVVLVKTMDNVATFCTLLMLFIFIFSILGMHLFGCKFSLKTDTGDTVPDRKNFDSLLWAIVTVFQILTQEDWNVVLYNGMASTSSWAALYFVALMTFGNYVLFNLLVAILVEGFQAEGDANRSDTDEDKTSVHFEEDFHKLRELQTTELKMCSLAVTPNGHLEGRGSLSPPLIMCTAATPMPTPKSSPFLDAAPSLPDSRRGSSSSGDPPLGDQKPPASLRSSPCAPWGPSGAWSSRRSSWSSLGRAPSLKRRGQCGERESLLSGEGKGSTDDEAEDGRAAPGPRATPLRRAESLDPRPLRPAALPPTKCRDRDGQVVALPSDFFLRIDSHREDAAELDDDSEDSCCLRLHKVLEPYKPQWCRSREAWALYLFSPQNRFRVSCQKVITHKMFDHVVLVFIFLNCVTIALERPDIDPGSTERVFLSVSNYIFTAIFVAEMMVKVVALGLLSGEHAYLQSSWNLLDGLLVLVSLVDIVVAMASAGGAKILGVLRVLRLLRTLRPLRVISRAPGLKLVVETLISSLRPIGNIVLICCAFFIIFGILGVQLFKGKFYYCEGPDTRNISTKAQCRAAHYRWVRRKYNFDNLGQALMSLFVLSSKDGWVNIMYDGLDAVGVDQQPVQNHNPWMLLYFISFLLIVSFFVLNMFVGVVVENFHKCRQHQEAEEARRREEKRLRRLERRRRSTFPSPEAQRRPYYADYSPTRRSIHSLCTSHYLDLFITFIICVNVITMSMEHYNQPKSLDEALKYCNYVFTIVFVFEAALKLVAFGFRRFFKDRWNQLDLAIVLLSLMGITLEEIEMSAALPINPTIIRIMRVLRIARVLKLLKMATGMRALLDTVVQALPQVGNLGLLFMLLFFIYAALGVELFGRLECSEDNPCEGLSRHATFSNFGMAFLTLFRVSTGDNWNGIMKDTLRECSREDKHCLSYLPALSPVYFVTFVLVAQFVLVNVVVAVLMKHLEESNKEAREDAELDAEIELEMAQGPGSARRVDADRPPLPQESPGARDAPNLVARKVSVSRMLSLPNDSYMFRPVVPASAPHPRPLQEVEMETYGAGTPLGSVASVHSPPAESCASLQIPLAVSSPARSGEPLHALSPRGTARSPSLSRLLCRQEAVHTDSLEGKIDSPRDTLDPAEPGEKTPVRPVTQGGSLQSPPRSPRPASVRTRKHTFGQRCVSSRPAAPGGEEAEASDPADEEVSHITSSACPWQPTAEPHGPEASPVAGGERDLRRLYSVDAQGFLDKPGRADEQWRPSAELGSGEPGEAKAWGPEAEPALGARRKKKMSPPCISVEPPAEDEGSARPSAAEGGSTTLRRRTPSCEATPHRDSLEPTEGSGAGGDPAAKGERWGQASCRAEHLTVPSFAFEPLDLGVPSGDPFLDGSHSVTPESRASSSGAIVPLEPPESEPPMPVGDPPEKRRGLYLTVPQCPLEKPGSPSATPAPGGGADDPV

For the molecule `O=C(NC1CC12CCN(CCCc1ccccc1)CC2)c1cc(Cl)cc(Cl)c1` (stereo not shown) [Example 45, 3,5-Dichloro-N-(6-(3-phenylpropyl)-6-azaspiro[2.5]octan-1-yl)benzamide], the IC50 (usually the point on the concentration scale where inhibition reaches its midpoint) turned out to be 40 nM.

For `CC(C)(C)NC(=O)CN1CCC2(CC1)CC2NC(=O)c1cc(F)cc(C(F)(F)F)c1` (stereo not shown) [Example 18, N-{6-[(tert-Butylcarbamoyl)methyl]-6-azaspiro[2.5]octan-1-yl}-3-fluoro-5-(trifluoromethyl)benzamide], the IC50 was found to be 250 nM.

`O=C(NC1CC12CCN(CC(O)c1ccc(C(F)(F)F)cc1)CC2)c1cc(Cl)cc(Cl)c1` (stereo not shown) [Example 59, 3,5-Dichloro-N-(6-(2-hydroxy-2-(4-(trifluoromethyl)phenyl)ethyl)-6-azaspiro[2.5]octan-1-yl)benzamide]: the IC50 worked out at 70 nM.

`CC(C)(C)NC(=O)CN1CCC2(CC1)C[C@H]2C(=O)Nc1cc(F)cc(C(F)(F)F)c1` (single isomer, unassigned) [Example 133, (R)-6-(2-(tert-Butylamino)-2-oxoethyl)-N-(3-fluoro-5-(trifluoromethyl)phenyl)-6-azaspiro[2.5]octane-1-carboxamide or (S)-6-(2-(tert-Butylamino)-2-oxoethyl)-N-(3-fluoro-5-(trifluoromethyl)phenyl)-6-azaspiro[2.5]octane-1-carboxamide]: the IC50 stood at 200 nM.

Turning to `CC(C)(C)NC(=O)CN1CCC2(CCC2NC(=O)c2cc(Cl)cc(Cl)c2)CC1` (stereo not shown) [Example 71, N-(7-(2-(tert-Butylamino)-2-oxoethyl)-7-azaspiro[3.5]nonan-1-yl)-3,5-dichlorobenzamide], the IC50 is 200 nM.

Turning to `CC(C)(C)NC(=O)CN1CCC2(CC1)CC2NC(=O)C12CC3CC(CC(C3)C1)C2` (stereo not shown) [Example 143, N-(6-(2-(tert-Butylamino)-2-oxoethyl)-6-azaspiro[2.5]octan-1-yl)adamantane-1-carboxamide], the IC50 came to 290 nM.

For `CC(C)(C)CCN1CCC2(CC1)CC2NC(=O)c1cc(C(F)(F)F)ccc1Cl` (stereo not shown) [Example 142, 2-Chloro-N-(6-(3,3-dimethylbutyl)-6-azaspiro[2.5]octan-1-yl)-5-(trifluoromethyl)benzamide], the IC50 was determined as 90 nM.

For the molecule `CC(C)(C)CCN1CCC2(CC1)CC2NC(=O)C12CC3CC(CC(C3)C1)C2` (stereo not shown) [Example 30, N-[6-(3,3-Dimethylbutyl)-6-azaspiro[2.5]octan-1-yl]adamantane-1-carboxamide], the IC50 came to 90 nM.

`O=C(NC1CC12CCN(CCc1ccccc1)CC2)c1ccc(Cl)c(Cl)c1` (stereo not shown) [Example 8, 3,4-Dichloro-N-(6-phenethyl-6-azaspiro[2.5]octan-1-yl)benzamide]: the IC50 was determined as 120 nM.

In the case of `O=C(NC1CC12CCN(CCCC1CCOCC1)CC2)c1cc(Cl)cc(Cl)c1` (stereo not shown) [Example 48, 3,5-Dichloro-N-(6-(3-(tetrahydro-2H-pyran-4-yl)propyl)-6-azaspiro[2.5]octan-1-yl)benzamide], the IC50 worked out at 260 nM.

Take `CC(C)(C)NC(=O)CN1CCC2(CCC2NC(=O)c2cc(Cl)cc(Cl)c2)CC1` (stereo in doubt) [Example 114, (R)—N-(7-(2-(tert-Butylamino)-2-oxoethyl)-7-azaspiro[3.5]nonan-1-yl)-3,5-dichlorobenzamide]: the IC50 is 230 nM.

As for `O=C(CCc1ccc(Cl)c(Cl)c1)Nc1nnc(-c2ccc(Cl)s2)o1` [Example 120, N-(5-(5-Chlorothiophen-2-yl)-1,3,4-oxadiazol-2-yl)-3-(3,4-dichlorophenyl)propanamide], at 1 µM the inhibition was 9.2%.

For the molecule `CC(C)(C)CCN1CCC2(CC1)CC2NC(=O)c1cc(F)cc(C(F)(F)F)c1` (stereo not shown) [Example 24, N-(6-(3,3-Dimethylbutyl)-6-azaspiro[2.5]octan-1-yl)-3-fluoro-5-(trifluoromethyl)benzamide], the IC50 was 20 nM.

`CC(C)(C)NC(=O)CN1CCC2(CC1)CC2CNc1cc(Cl)cc(Cl)c1` (stereo not shown) [Example 93]: the IC50 stood at 100 nM.

In the case of `CC(C)(C)NC(=O)CN1CCC2(CC1)C[C@@H]2NC(=O)[C@]12C[C@@]3(F)C[C@](F)(C[C@](F)(C3)C1)C2` (single isomer, unassigned) [Example 131, (3S,5S,7S)—N—((R)-6-(2-(tert-Butylamino)-2-oxoethyl)-6-azaspiro[2.5]octan-1-yl)-3,5,7-trifluoroadamantane-1-carboxamide or (3S,5S,7S)—N—((S)-6-(2-(tert-Butylamino)-2-oxoethyl)-6-azaspiro[2.5]octan-1-yl)-3,5,7-trifluoroadamantane-1-carboxamide], the IC50 was found to be 620 nM.

With `CC(C)(C)NC(=O)CN1CCC2(CC1)CC2NC(=O)c1ccccc1` (stereo not shown) [Example 4, N-(6-(2-(tert-Butylamino)-2-oxoethyl)-6-azaspiro[2.5]octan-1-yl)benzamide], the inhibition (usually the change of the read-out against control, counted positive when it falls) at 3 µM is 24.7%.

As to `CC(C)(C)CCN1CCC2(CC1)CC2CNC(=O)c1cc(Cl)cc(Cl)c1` (stereo not shown) [Example 88, 3,5-Dichloro-N-((6-(3,3-dimethylbutyl)-6-azaspiro[2.5]octan-1-yl)methyl)benzamide], the IC50 was 90 nM.

In the case of `O=C(NC1CC12CCN(CCc1ccc(Cl)cc1)CC2)c1cc(Cl)cc(Cl)c1` (stereo not shown) [Example 41, 3,5-Dichloro-N-(6-(4-chlorophenethyl)-6-azaspiro[2.5]octan-1-yl)benzamide], the IC50 came out at 160 nM.

Turning to `O=C(CN1CCC(CO)(CNC(=O)c2ccccc2F)CC1)Nc1ccccc1` [Example 110, 2-fluoro-N-((4-(hydroxymethyl)-1-(2-oxo-2-(phenylamino)ethyl)piperidin-4-yl)methyl)benzamide], at 1 µM the inhibition was 44%.

For `O=C(NC1CC12CCN(Cc1ccccc1)CC2)c1ccc(Cl)c(Cl)c1` (stereo not shown) [Example 10, N-(6-Benzyl-6-azaspiro[2.5]octan-1-yl)-3,4-dichlorobenzamide], the IC50 came out at 800 nM.

In the case of `CC(C)(C)CCN1CCC2(CCC2NC(=O)c2cc(Cl)cc(Cl)c2)CC1` (stereo not shown) [Example 69, 3,5-Dichloro-N-(7-(3,3-dimethylbutyl)-7-azaspiro[3.5]nonan-1-yl)benzamide], the IC50 came out at 280 nM.

As for `CC(C)CN1CCC2(CC1)CC2NC(=O)c1ccc(Cl)c(Cl)c1` (stereo not shown) [Example 6, 3,4-Dichloro-N-(6-isobutyl-6-azaspiro[2.5]octan-1-yl)benzamide], the inhibition at 3 µM was found to be 29.1%.

`CC(C)(C)C(=O)CN1CCC2(CC1)C[C@H]2NC(=O)c1cc(F)cc(Cl)c1` (single isomer, unassigned) [Example 134, (R)-3-Chloro-N-(6-(3,3-dimethyl-2-oxobutyl)-6-azaspiro[2.5]octan-1-yl)-5-fluorobenzamide or (S)-3-Chloro-N-(6-(3,3-dimethyl-2-oxobutyl)-6-azaspiro[2.5]octan-1-yl)-5-fluorobenzamide]: the IC50 was 120 nM.

`CC(C)(C)NC(=O)CN1CCC2(CC1)C[C@@H]2NC(=O)c1cc(Cl)cc(Cl)c1` (single isomer, unassigned) [Example 56, (S)—N-(6-(2-(tert-Butylamino)-2-oxoethyl)-6-azaspiro[2.5]octan-1-yl)-3,5-dichlorobenzamide or (R)—N-(6-(2-(tert-Butylamino)-2-oxoethyl)-6-azaspiro[2.5]octan-1-yl)-3,5-dichlorobenzamide]: the IC50 came out at 190 nM.

With `O=C(Nc1nnc(-c2ccc(Cl)s2)o1)c1ccccc1` [Example 117, N-(5-(5-Chlorothiophen-2-yl)-1,3,4-oxadiazol-2-yl)benzamide], testing at 1 µM gave an inhibition of 24%.
